Reference: article PMC6715681, “A high-throughput screen to identify novel synthetic lethal compounds for the treatment of E-cadherin-deficient cells” (Scientific Reports, 2019)
Marks after values point to notes of the source that are not given here.

How the values were obtained:
[1] = system: MCF10A CDH1^−/− cells; assay: Medium-throughput validation in 96-well plates, Hoechst-33342 nuclei counts (CellProfiler); format: cell-based, human; conditions: for EC50 ratio (MCF10A WT/MCF10A CDH1^−/−) / EC50: 96-well validation; for EC50: Hoechst nuclei counts, at least five concentration points; for Differential at 5 µM (%): 48 h post compound addition
Protocol: (§1) Cells were seeded into each well of Corning’s black walled, clear bottom 96-well plates with a total volume of 100 μL per well. Edge wells were excluded. Both isogenic cell lines were seeded into the same plate to mitigate plate-to-plate variation. Plates for real-time analysis were transferred to the xCELLigence platform (ACEA Biosciences, USA) or the IncuCyte FLR imaging system (Essen BioScience, USA) as previously described.
(§2) Seventy-two hours post seeding (or 48 hours post compound addition), plates were assayed for cell viability using a one-step cocktail of PFA (0.25% v/v), saponin (0.075% w/v) and Hoechst 33342 (1 μg/ml final) as described previously. CellProfiler was used to enumerate cell counts as previously described.

[2] = system: MCF10A CDH1^−/− cells; assay: 11-point dose-response screen, cell titre blue (CTB) viability; format: cell-based, human; conditions: for EC50: Homo sapiens, MCF-10A
Protocol: (§3) The 11-point dose-response screen evaluated a concentration range from 0.02 µM to 20 µM for both isogenic cell lines in duplicate biological replicates (Fig. 4). One limitation to metabolism-based cellular assays is that a change in read out (fluorescence, luminescence or absorbance) may not necessarily be caused by cell death and could instead result from a cessation of proliferation due to senescence or inhibited mitochondrial respiration. For this reason, a direct measurement of cell counts using cellular imaging of nuclei stained with Hoechst 33342 was also included at the 11-point screening stage. For the CTB 11-point screen all plates had acceptable Z’ values above 0.4, with the second biological replicate having 70% above 0.6 (Fig. 4A). The Z’ values for the high-content imaging (HCI) 11-point screen plates were above 0.4 for MCF10A WT, except one plate from biological replicate two with 0.396 (Fig. 4B). However, for MCF10A CDH1^−/− HCI data, only four plates were above a Z’ of 0.4 and the mean Z’ was 0.32 compared to a mean of 0.51 for MCF10A WT. A further quality metric known as the strictly standardized mean difference (SSMD)[40] is a less conservative approach for QC and a cut-off of >3 is generally used. The mean SSMD value was 7.04 for MCF10A WT and 5.27 for MCF10A CDH1^−/− plates and indicates the MCF10A CDH1^−/− HCI data was acceptable[41]. There was a good correlation between the top hits from the HCI and CTB 11-point screening with an overlap of 31 / 40 for the top 40 compounds selected from the eventual hit selection strategies.
MCF10A WT and MCF10A CDH1^−/− cells were seeded into Corning black walled, clear bottom 384-well plates (assay plates) using a multidrop 384 reagent dispenser (Thermo Fisher Scientific) and a total volume of 50 μL per well.
As we have shown MCF10A CDH1^−/− cells have a prolonged lag to log phase growth of around 24 hours, in order to achieve a similar confluence at 72 hours post seeding MCF10A WT and MCF10A CDH1^−/− cell lines were seeded at 600 cells/well and 800 cells/well, respectively. Following seeding, plates were left for one hour at RT without stacking[46] and then centrifuged at 500 × g (RCF) for one minute. Plates were then transferred to an incubator at 37 °C and 5% CO2. At 24 hours post seeding, the MiniTrak robotic liquid handling system (Perkin Elmer) was used to transfer 352 compounds per 384-well library plate to the first 22 columns of a 384-well assay plate containing cells to achieve a 10 μM final compound concentration for the pilot, primary and single-point confirmation screens. For the 11-point dose-response screen, compounds were added to columns 1–22, but excluding edge rows A and P of the library plate to reduce edge-effects (Supplementary Fig. 2). The controls of DMSO (0.2% v/v), doxorubicin (EC80) and entinostat (EC50) were added into columns 23–24 of each assay plate (Supplementary Table 1). Cell titre blue[47] was made in-house in sterile PBS from 597 μM resazurin, 78 μM methylene blue, 1 mM potassium hexacyanoferrate (III) and 1 mM potassium hexacyanoferrate (II) trihydrate. At 69 hours post seeding, 16.7% v/v CTB was added to plates and they were incubated at 37 °C for 3 hours (Supplementary Fig. 1). At 72 hours post seeding, plates were removed from the incubator and left for 30 minutes at RT to equalise the temperature across all wells of the plates and reduce fluorescence-based edge effects before reading on an EnVision (PerkinElmer) at 550 nm excitation and 590 nm emission to quantify cell viability.
Supplementary Table 1. Killing control and SL control effective concentrations.
Doxorubicin EC80 0.3 µM 0.4 µM
MCF10A WT cells were seeded at 600/well and MCF10A CDH1-/- cells at 800/well in 384-well plates. Drugs
were added at 24 hours post seeding and CTB was used as an end-point assay. Concentrations were normalized

[3] = system: MCF10A CDH1^−/− cells; assay: xCELLigence real-time impedance assay (cell proliferation index); format: cell-based, human; conditions: for SL differential between the two cell lines (in words): xCELLigence real-time assay, SLEC-8 at 10 μM, SLEC-11 at 20 μM
Protocol: (§4) The xCELLigence real-time system quantifies electrical impedance as a measurement of cell viability which is expressed as the cell proliferation index. […] This was due to drug effects and briefly removing plates from the incubator for the addition of compounds and controls. Despite a slower adhesion time for MCF10A CDH1^−/−, consistent with our previous finding[3] the DMSO control treated cells had similar slopes of 0.17 and 0.15 for MCF10A WT and MCF10A CDH1^−/−, respectively.
(§5) Figure 10 Real-time xCELLigence data for lead compounds 8 and 11. (A) Timeline for the real-time cellular assay. Plates were seeded 4,000 cells/well as described in the Methods. (B,C) Data shown is a representative experiment of two biological replicates, performed in 96-well xCELLigence E-plates. Error bars are SD. Measurements were taken every 15 minutes. The cell proliferation index was calculated using the RTCA software. (B) Cells were treated with SLEC-8. (C) Cells were treated with SLEC-11.
as §1

[4] = system: MCF10A WT cells; assay: as above; format: cell-based, human
Protocol: as §4, §5, §1

[5] = system: MCF10A WT cells; assay: 11-point dose-response screen, high-content imaging (HCI) of Hoechst 33342 nuclei; format: cell-based; conditions: Homo sapiens, MCF-10A, 11-point screen
Protocol: as §3
A direct measurement of cell counts using cellular imaging of nuclei was also included at the 11-point screening stage. Plates were fixed, washed and stained using an ELx405 Select deep well washer (BioTek). Media was first aspirated leaving 10 μL/well, then 4% w/v PFA was added and plates left for 15 minutes at RT. Plates were then washed twice with PBS-T, before aspirating all permeabilization buffer and adding Hoechst 33342 (1 μg/mL final) in PBS. Plates were then stored in the dark at 4 °C, until being imaged on a BD Pathway 855. Two 10x images per well were taken and cell counts enumerated using CellProfiler[48].

[6] = system: MCF10A WT cells; assay: Medium-throughput validation in 96-well plates, Hoechst-33342 nuclei counts (CellProfiler); format: cell-based; conditions: Homo sapiens, MCF-10A, 96-well validation, at least five concentration points
Protocol: as §1, §2

[7] = normalized cell counts MCF10A WT – MCF10A CDH1^−/−, 96-well

SMILES | EC50 ratio (MCF10A WT/MCF10A CDH1^−/−) [1] | EC50 [1] [µM] | EC50 ([1]; Homo sapiens, MCF-10A) [µM] | SL differential at 2.5 μM ([1]; normalized cell counts MCF10A WT – MCF10A CDH1^−/−, 96-well, 2.5 μM) [%] | Differential at 5 µM (%) [1, 7] [%] | Differential at 5 µM (%) ([1]; normalized cell counts MCF10A WT – MCF10A CDH1^−/−, 96-well, listed as 8) | EC50 ([2]; 11-point screen, CTB, read-out: MCF10A CDH1^-/- CTB EC50) [µM] | SL differential between the two cell lines (in words) [3] | Decrease in cell proliferation index compared to DMSO ([3]; xCELLigence, 10 μM, 60 hours post seeding) [fold] | Recovery of MCF10A WT cells (in words) ([4]; 10 μM, by 60 hours post seeding) | EC50 [5] [µM] | EC50 [6] [µM] | Differential at 5 µM (%) ([1]; normalized cell counts MCF10A WT – MCF10A CDH1^−/−, 96-well, listed as 11) | Differential at 20 μM ([2]; 11-point screen, MCF10A WT – MCF10A CDH1−/− POC at 20 μM) | EC50 ([2]; 11-point screen (0.02–20 µM), CTB values, averaged between two biological replicates, Supplementary Table 2, read-out: MCF10A CDH1 -/- EC50) [µM] | Difference in cell proliferation index between compound and DMSO (maximum) ([3]; xCELLigence, 20 μM, 62 hours post seeding) [fold] | Difference in cell proliferation index to DMSO in MCF10A WT cells (in words) ([4]; 20 μM, 62 hours post seeding)
CC(O)CNCc1ccc(OCc2ccc(Cl)cc2Cl)cc1 (stereo not drawn) [SLEC-8] | 1.36 | 9.07 | 9.1 | 22.0 | 22.8 | 22.79* % | 7.66 | significant SL differential | 2.7 | able to fully recover | 10.2 | 12.4 | – | – | – | – | –
COc1ccc2nc(C)cc(NCc3ccc(F)cc3)c2c1 [SLEC-11, N-(4-Fluorobenzyl)-6-methoxy-2-methylquinolin-4-amine] | 1.53 | 7.02 | 7 | – | 20.7 | – | – | significant SL differential | – | – | 14.6 | 10.8 | 20.74* % | 106.45 | 6.96 | 7.9 | no difference
